Test results: patent US12274709B2, “Dual-drug co-delivery system, preparation method therefor and use thereof” (Institute of Basic Medical Sciences Chinese Academy of …, priority 2019, dated 2025)
Structures can show the parent of a compound that is named as a salt.

How the values were obtained:
Format in all cases: cell-based
[1] = test system: HL60/A cells (HL60 cells resistant to Doxorubicin); test: CCK8 cell viability, HL60/A cells; settings: 24 h
Protocol: Taking HL60/A cells (HL60 cells resistant to Doxorubicin) as an example, the specific method was as follows:
(§1) Cells in the Corning 96-well U plates were incubated for 24 h and then washed with PBS, 110 μL CCK8 dilution was added to each well and incubated for 2 h, and the absorbance values (OD) at wavelengths of 450 and 630 nm were measured using the microplate reader. The cell viability was calculated according to Formula 1.

K562 cells = test: CCK8 cell viability, K562 cells; settings: Homo sapiens, HHT 25 ng/mL, DOX 375 ng/mL (15:1)
Protocol: as §1

HeLa cells = test: CCK8 cell viability, HeLa cells; settings: Homo sapiens, HHT 20 ng/mL, DOX 120 ng/mL (6:1)
Protocol: as §1

[2] = test system: U937R (cytarabine-resistant strain, acute myeloid leukemia); test: CCK8 cell viability, U937R cells; settings: HHT 15 ng/mL, DOX 120 ng/mL (8:1)
Protocol: as §1

MCF7 cells = test: CCK8 cell viability, MCF7 cells; settings: Homo sapiens, HHT 25 ng/mL, DOX 100 ng/mL (4:1)
Protocol: as §1

Structure (SMILES) | cytotoxicity against Doxorubicin-resistant strain HL60/A ([1]; DOX 200 ng/mL, FIG. 3) | viability at 0.375 µg/mL (K562 cells) [%] | viability at 0.12 µg/mL (HeLa cells) [%] | viability at 0.12 µg/mL [2] [%] | viability at 0.1 µg/mL (MCF7 cells) [%] | viability at 0.025 µg/mL ([1]; Homo sapiens, HL60/A cells, HHT 25 ng/mL, DOX 200 ng/mL (DOX:HHT 8:1), FIG. 3, system of Example 1) [%] | viability at 0.025 µg/mL (K562 cells) [%] | viability at 0.02 µg/mL (HeLa cells) [%] | viability at 0.015 µg/mL [2] [%] | viability at 0.025 µg/mL (MCF7 cells) [%]
COc1cccc2c1C(=O)c1c(O)c3c(c(O)c1C2=O)C[C@@](O)(C(=O)CO)C[C@@H]3O[C@H]1C[C@H](N)[C@H](O)[C@H](C)O1 [DOX, Doxorubicin hydrochloride] | no cytotoxicity | 80 | 90 | 55 | 92 | – | – | – | – | –
COC(=O)C[C@](O)(CCCC(C)(C)O)C(=O)O[C@@H]1C(OC)=C[C@]23CCCN2CCc2cc4c(cc2[C@H]13)OCO4 [HHT, Homoharringtonine] | – | – | – | – | – | 56 | 59 | 41 | 59 | 50
